From the CheMixHub ionic liquid set
“And” between values parts separate entries of the source, which are not always exact repeats. Identical values can stand only once.

Assay: xn = mol fraction of the nth substance listed
Settings: for electrical conductivity: 298.1 K

CC(C)O + CS(=O)(=O)[O-].C[N+](C)(CCO)CCO
101 kPa, x2 = 0
Settings | viscosity [mPa·s]
298.15 K | 2.08
303.15 K | 1.79
308.15 K | 1.546
313.15 K | 1.343
318.15 K | 1.189
323.15 K | 1.056

CCCC[n+]1ccn(C)c1.O=S(=O)([O-])C(F)(F)F + CS(C)=O
viscosity [mPa·s], 100 kPa
Settings | x1 = 0.1006 | x1 = 0.2001 | x1 = 0.3054 | x1 = 0.4035 | x1 = 0.502 | x1 = 0.6085 | x1 = 0.7001 | x1 = 0.8088 | x1 = 0.9004 | x1 = 1
298.15 K | 4 | 6.59 | 10.1 | 14.3 | 21.8 | 33 | 44 | 59.8 | 72.8 | 82.4
303.15 K | 3.57 | 5.71 | 8.68 | 12.4 | 18.4 | 27.2 | 36 | 48.1 | 58.3 | 66.7
308.15 K | 3.18 | – | 7.55 | 10.5 | 15.5 | 22.7 | 29.7 | 39.6 | 47.4 | 52.9
313.15 K | 2.88 | 4.46 | 6.61 | 9.22 | 13.3 | 19.2 | 25 | 32.8 | 39 | 43.7
318.15 K | 2.61 | 3.98 | 5.83 | 8.08 | 11.5 | 16.4 | 21.2 | 27.5 | 32.6 | 36.3
323.15 K | 2.38 | 3.59 | 5.2 | 7.15 | 10.1 | 14.2 | 18.1 | 23.4 | 27.5 | 30.6

CCOP(=O)([O-])OCC.CC[n+]1ccn(C)c1 + CS(C)=O
100 kPa
Settings | electrical conductivity
x1 = 0.025 | 0.31 S/m and 0.4 S/m
x1 = 0.407 | 0.4 S/m
x1 = 0.718 | 0.16 S/m
x1 = 1 | 0.09 S/m

CCCC[n+]1ccn(C)c1.O=S(=O)([O-])C(F)(F)F + CS(C)=O + OCCO
viscosity [mPa·s], 100 kPa
Settings | 298.15 K | 303.15 K | 308.15 K | 313.15 K | 318.15 K | 323.15 K
x1 = 0.0301, x2 = 0.903 | 3.07 | 2.75 | 2.47 | 2.25 | 2.04 | 1.86
x1 = 0.0698, x2 = 0.8409 | 3.41 | 3.16 | 2.83 | 2.56 | 2.32 | 2.12
x1 = 0.1006, x2 = 0.7931 | 4.04 | 3.69 | 3.29 | 2.96 | 2.67 | 2.43
x1 = 0.1311, x2 = 0.7537 | 5.33 | 4.67 | 4.14 | 3.69 | 3.31 | 3
x1 = 0.1702, x2 = 0.7004 | 6.5 | 5.61 | 4.93 | 4.37 | 3.9 | 3.51
x1 = 0.2067, x2 = 0.6494 | 8.13 | 6.91 | 6.04 | 5.31 | 4.71 | 4.21
x1 = 0.2329, x2 = 0.603 | 9 | 7.8 | 6.78 | 5.95 | 5.26 | 4.68
x1 = 0.2768, x2 = 0.5373 | 11.8 | 9.8 | 8.47 | 7.38 | 6.48 | 5.74
x1 = 0.3089, x2 = 0.4851 | 13.6 | 11.2 | 9.67 | 8.39 | 7.35 | 6.48
x1 = 0.3348, x2 = 0.4441 | 15.1 | 12.1 | 10.4 | 8.97 | 7.83 | 6.89
x1 = 0.3723, x2 = 0.3876 | 17.3 | 14.2 | 12.2 | 10.5 | 9.13 | 8
x1 = 0.4022, x2 = 0.3357 | 19 | 15.7 | 13.4 | 11.5 | 10 | 8.73
x1 = 0.4355, x2 = 0.2923 | 21.3 | 17.9 | 15.1 | 13 | 11.2 | 9.82
x1 = 0.473, x2 = 0.2581 | 23.3 | 19.3 | 16.3 | 14 | 12.1 | 10.5
x1 = 0.5076, x2 = 0.2336 | 25.5 | 21.2 | 17.9 | 15.2 | 13.1 | 11.4
x1 = 0.5442, x2 = 0.2004 | 27.9 | 23.2 | 19.6 | 16.6 | 14.3 | 12.4
x1 = 0.5775, x2 = 0.1858 | 30.3 | 25.2 | 21.2 | 18 | 15.4 | 13.4
x1 = 0.6051, x2 = 0.18 | 32.5 | 26.9 | 22.6 | 19.2 | 16.4 | 14.2
x1 = 0.6226, x2 = 0.1647 | 33.8 | 27.8 | 23.3 | 19.7 | 16.9 | 14.6
x1 = 0.6651, x2 = 0.1526 | 37.8 | 31 | 26.1 | 22 | 18.8 | 16.2
x1 = 0.6961, x2 = 0.1474 | 41.2 | 33.5 | 28.2 | 23.8 | 20.3 | 17.5
